Entries after “also recorded” stand apart in the source; their conditions may differ. Like-named read-outs stand apart in the source and are kept apart here.
What was measured:
β-APP [1] = assay: β-APP levels in adult rats after three weeks of daily administration; format: in vivo, rat; conditions: daily for three weeks, metrifonate 80 mg/kg, tacrine 3 mg/kg, data not shown
Procedure: The levels of β-APP were measured by 22C11 (epitope APP 66-81).

β-APP [2] = assay: β-APP levels in neuroblastoma cell culture (Western blot, mAb 22C11); format: cell-based, human; conditions: for β-APP levels, intracellular and extracellular: SK-N-SH cells, 5 or 50 μM, up to 16 hours, vs control, no cellular toxicity (LDH), FIG. 4/5; for intracellular β-APP level: donepezil treatment, FIG. 2
Procedure: Acad. Sci. USA 98 (13):7605-7610. The methodology of Shaw et al. for carrying out these tests is summarized as follows:
(§1) SK—N—SH neuroblastoma cells were cultured on 60 mm dishes at a concentration of 3×10^6 cells, and SH—SY-5Y neuroblastoma cells were plated in 100 mm dishes at a concentration of 3×10^5 cells. The cells were allowed to grow in complete media (10% FBS, 2 mM glutamine in DMEM) for 3 to 4 days until they reached 70% confluence.
Lysate preparation: At each time point, the spent medium was collected and stored at −70 C for later analysis of secretory β-APP levels. Cell lysates were prepared as reported previously (Lahiri et al. (1997) Effects of Cholinesterase Inhibitors on the Secretion of Beta-Amyloid Precursor Protein in Cell Cultures, Ann. N.Y Acad. Sci. 826:416-421; and Lahiri et al. (1998) The Secretion of Amyloid Beta-Peptides is Inhibited in the Tacrine-Treated Human Neuroblastoma Cells, Mol. Brain Res. 62:131-140). Protein levels of the supernatant were analyzed by the Bradford protein assay (BioRad, Mellville, N.Y.).
Western Blot: Fifteen μg of protein from each sample was loaded onto a 10% NuPAGE Bis-Tris gel in 1× NuPAGE MOPS SDS running buffer (NOVEX, San Diego, Calif.) and the proteins separated at 200 V for 45 minutes. The gels were then transferred onto nitrocellulose at 25 V for 1.5 hours. Non-specific binding was blocked, and each blot was probed for 2 hours with either 22C11 anti-β-APP N-terminal antibody (2.5 μg/mL, Boehringer Mannheim, Indianapolis, Ind.) or anti-activated ERK antibody (25 ng/mL, Promega, Madison, Wis.). Anti-mouse IgG- or anti-rabbit IgG, conjugated to horse radish peroxidase, were used as secondary antibodies. Equivalent loading of samples was determined by Ponceau S staining (Sigma, St. Louis, Mo.). Densimetric quantification of the chemiluminescence of blots was undertaken by using a […] and NIH-IMAGE (version 4.1).

Aβ [3] = assay: Aβ levels in neuroblastoma cell culture (ELISA); format: cell-based, human; conditions: for secreted levels of Aβ: SK-N-SH cells, 5 or 50 μM, up to 16 hours, vs control, no cellular toxicity (LDH), FIG. 4/5
Procedure: as §1
Total Aβ Assay: Total Aβ peptide levels in SH—SY-5Y and SK—N—SH cultured samples were assayed by a sensitive ELISA assay (Suzuki et al., (1994) An Increased Percentage of Long Amyloid Beta Protein Secreted by Familial Amyloid Beta Protein Precursor (beta APP717) Mutants, Science 264:1336-1340). For total Aβ peptide measurements, a sandwich immunoassay with rabbit polyclonal antibody to residues 1-40 of Aβ or a monoclonal antibody to residues 17-25 of Aβ as a capture antibody for all species of Aβ peptide, Aβ1-40 and Aβ1-42, was used, and the values were expressed as the mean of six independent assays.

[4] = target: T1, acetylcholinesterase (AChE) (Homo sapiens, UniProt P22303); assay: IC50 for AChE inhibition, phenserine enantiomers; format: biochemical
T1 construct: host or cells: human erythrocytes
Description: (§2) For example, the pharmacological activity of each compound may be expressed as the IC50, which is defined as the concentration (e.g., in nanomoles) required to inhibit 50% of the enzyme activity of ACHE or produce a 50% reduction in β-APP or Aβ. The AChE inhibition IC50 values may be determined by measuring the enzyme activity at each concentration and expressed as a percentage of the activity determined in the absence of each compound. This then is transformed into a logit format, where logit=In (% activity/[100−% activity]), and was plotted as a finction of the log concentration of the compound (Id.). IC50 values (i.e., logit=In (50/[100−50 =0) were determined only from correlation coefficients (r^2) of […] and when more than 50% inhibition was achieved from duplicate samples.

[5] = i.p. administration to rodents, cholinergic over-stimulation symptoms
Description: This is a classical central (i.e., brain) cholinergic over-stimulation (overdrive) effect.

Aβ [6] = assay: Preclinical studies, Aβ levels in nerve cells; format: cell-based, rat; conditions: for reduction of Aβ levels in nerve cells: versus controls
β-APP [7] = assay: β-APP production on coadministration of (+)-phenserine with an AChEI (Example III); format: cell-based
Description: The compounds may be tested by the procedure utilized in Example II.

[8] = Randomized, double-blind, placebo-controlled 12-week study in mild to moderate Alzheimer's disease; format: in vivo, human; conditions: oral, 12 weeks
[9] = target: T1, acetylcholinesterase (AChE); conditions: compared with the negative enantiomer; Pei, Greig et al. (1995); cited from earlier work
β-APP [10] = assay: CSF levels of β-APP in naive and forebrain-lesioned rats; format: in vivo, rat; conditions: for CSF levels of β-APP: vs untreated controls, FIG. 6
Procedure: Lesions were induced with […] N-methyl-D-aspartic acid (50 nMol) (64-68).

AChE [11] = target: T2, AChE (Rattus norvegicus, UniProt P37136); assay: In vivo AChE inhibition in plasma after i.v. administration; design: species or system Fischer-344 rats; conditions: iv, 1 mg/kg i.v.
T2 construct: Samples of plasma were removed to measure untreated levels of AChE activity; from tissue; host or cells: plasma of Fischer-344 rats
T2 sequence (P37136 32-614): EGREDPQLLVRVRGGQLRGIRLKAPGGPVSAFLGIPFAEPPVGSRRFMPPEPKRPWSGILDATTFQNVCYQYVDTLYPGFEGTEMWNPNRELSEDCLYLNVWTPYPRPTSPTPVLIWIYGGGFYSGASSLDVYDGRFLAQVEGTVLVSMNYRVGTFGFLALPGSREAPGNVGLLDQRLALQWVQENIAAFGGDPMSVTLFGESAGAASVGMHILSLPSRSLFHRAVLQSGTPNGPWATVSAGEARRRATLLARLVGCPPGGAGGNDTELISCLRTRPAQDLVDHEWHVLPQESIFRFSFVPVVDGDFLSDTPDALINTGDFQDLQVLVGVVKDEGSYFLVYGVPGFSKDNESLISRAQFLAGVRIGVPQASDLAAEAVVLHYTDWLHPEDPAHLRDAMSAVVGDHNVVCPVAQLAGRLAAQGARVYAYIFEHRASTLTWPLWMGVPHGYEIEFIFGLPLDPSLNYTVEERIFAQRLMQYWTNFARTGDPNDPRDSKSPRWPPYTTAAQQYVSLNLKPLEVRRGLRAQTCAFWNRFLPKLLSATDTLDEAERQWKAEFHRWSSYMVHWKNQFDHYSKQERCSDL
Procedure: In this experiment, three-month-old male Fischer-344 rats were anesthetized with halothane. PE 50 catheters, filled with heparinized isotonic saline, were tied into their right femoral artery and vein. Animals then were restrained with a plaster cast that enabled them to move their head and forequarters only and were allowed to recover from anesthesia in a temperature-controlled enclosure. Samples of plasma were removed to measure untreated levels of AChE activity. At 90 minutes after surgery, hexamethonium bromide (5 mg/kg) was administered intraperitoneally, followed by subcutaneous injection of atropine methyl bromide (4 mg/kg) 10 minutes later. […] Both were formulated in a manner consistent for intravenous bolus injection. Plasma samples were removed and immediately frozen at −70° C., just prior to intravenous administration of the inhibitors and at times between 2 minutes and 8 hours.

BChE = target: T3, BChE (Homo sapiens, UniProt P06276); assay: BChE inhibition IC50 (RBC/plasma and brain); format: biochemical
T3 construct: (−)-Phenserine (RBC/plasma); from tissue; host or cells: plasma (RBC/plasma rows); brain (Brain rows)

β-APP [12] = assay: Preclinical studies, β-APP levels; format: cell-based, rat; conditions: versus controls
AChE [13] = target: T4, AChE (Homo sapiens, UniProt P22303); assay: biochemical; conditions: IC50 Value AChE, Brain
T4 construct: other: Brain
Description: as §2

[14] = extracellular β-APP levels, read-out: IC50 for β-APP secretion
[15] = intracellular β-APP levels, read-out: IC50 for intracellular β-APP
[16] = human neuroblastoma cells, 2 μM, 10 μM and 50 μM (text: 50 μM), FIG. 3

T3 sequence (P06276 29-602, species assumed): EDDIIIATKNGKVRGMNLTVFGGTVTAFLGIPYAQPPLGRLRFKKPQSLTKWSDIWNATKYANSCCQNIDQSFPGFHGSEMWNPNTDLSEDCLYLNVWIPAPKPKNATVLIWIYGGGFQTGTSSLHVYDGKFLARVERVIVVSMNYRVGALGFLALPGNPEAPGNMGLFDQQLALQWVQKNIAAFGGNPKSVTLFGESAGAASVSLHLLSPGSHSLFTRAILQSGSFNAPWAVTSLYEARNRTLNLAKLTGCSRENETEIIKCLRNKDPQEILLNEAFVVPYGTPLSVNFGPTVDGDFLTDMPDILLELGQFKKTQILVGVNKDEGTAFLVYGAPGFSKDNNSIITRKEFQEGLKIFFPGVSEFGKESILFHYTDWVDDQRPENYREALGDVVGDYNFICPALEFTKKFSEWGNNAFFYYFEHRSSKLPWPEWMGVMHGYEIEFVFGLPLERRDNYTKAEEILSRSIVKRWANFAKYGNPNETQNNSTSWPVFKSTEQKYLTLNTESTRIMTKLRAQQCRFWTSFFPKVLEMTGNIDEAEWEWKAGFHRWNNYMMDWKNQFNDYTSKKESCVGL
T1 sequence (P22303 32-617 isoform P22303-2 limits assumed): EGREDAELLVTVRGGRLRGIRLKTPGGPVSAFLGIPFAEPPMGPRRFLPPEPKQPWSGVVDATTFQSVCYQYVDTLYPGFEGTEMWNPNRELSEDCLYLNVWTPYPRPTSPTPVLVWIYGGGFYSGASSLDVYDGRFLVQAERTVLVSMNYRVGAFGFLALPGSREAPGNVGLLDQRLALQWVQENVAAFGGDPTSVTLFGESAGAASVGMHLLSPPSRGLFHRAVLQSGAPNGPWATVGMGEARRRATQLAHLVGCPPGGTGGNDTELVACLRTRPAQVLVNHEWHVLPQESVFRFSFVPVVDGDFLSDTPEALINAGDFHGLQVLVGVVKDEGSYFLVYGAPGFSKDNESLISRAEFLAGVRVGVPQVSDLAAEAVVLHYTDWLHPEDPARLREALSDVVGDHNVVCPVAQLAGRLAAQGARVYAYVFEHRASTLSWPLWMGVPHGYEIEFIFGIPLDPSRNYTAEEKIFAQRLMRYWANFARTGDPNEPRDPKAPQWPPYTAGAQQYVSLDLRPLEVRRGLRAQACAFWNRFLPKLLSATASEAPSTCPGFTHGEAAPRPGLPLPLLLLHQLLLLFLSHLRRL
T4 sequence (P22303 whole entry): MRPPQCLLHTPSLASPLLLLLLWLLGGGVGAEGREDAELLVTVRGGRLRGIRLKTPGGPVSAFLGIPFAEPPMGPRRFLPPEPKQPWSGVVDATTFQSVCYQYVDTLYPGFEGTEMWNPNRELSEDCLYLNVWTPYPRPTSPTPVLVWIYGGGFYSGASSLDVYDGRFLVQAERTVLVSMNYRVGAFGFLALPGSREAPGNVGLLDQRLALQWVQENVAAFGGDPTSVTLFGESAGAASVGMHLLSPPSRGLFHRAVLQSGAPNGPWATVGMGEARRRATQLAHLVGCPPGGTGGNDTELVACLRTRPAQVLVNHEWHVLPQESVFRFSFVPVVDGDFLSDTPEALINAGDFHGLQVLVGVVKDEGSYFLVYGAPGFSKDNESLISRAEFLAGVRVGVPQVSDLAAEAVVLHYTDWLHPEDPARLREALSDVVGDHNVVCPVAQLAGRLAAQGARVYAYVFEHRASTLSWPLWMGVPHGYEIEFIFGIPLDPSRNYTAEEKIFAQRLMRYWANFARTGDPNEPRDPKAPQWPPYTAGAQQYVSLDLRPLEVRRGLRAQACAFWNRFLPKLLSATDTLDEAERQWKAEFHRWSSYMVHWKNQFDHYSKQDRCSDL

Nc1c2c(nc3ccccc13)CCCC2 [Tacrine]
secreted β-APP levels (β-APP [1]): did not alter

CN1CC[C@]2(C)c3cc(OC(=O)Nc4ccccc4)ccc3N(C)C12 (single isomer, unassigned; (+)) [(+)-phenserine]
β-APP levels, intracellular and extracellular (β-APP [2]): significantly lowered | β-APP levels, intracellular and extracellular (β-APP [2]; listed as (+)-Phenserine): capable of reducing the β-APP and Aβ protein levels | IC50 (β-APP [2]; [14]): ~0.67 µM | IC50 (β-APP [2]; [15]): ~1.1 µM | secreted levels of Aβ (Aβ [3]): significantly lowered | secreted levels of Aβ (Aβ [3]; listed as (+)-Phenserine): capable of reducing the β-APP and Aβ protein levels | IC50 [4]: > 25 µM | observed symptoms ([5]; 20 mg/kg i.p.): entirely without symptoms | Aβ levels (Aβ [6]; combined with (−)-phenserine): further reduced | production of β-APP (β-APP [7]; coadministered with donepezil): reduce the production of β-APP | production of β-APP (β-APP [7]; coadministered with eptastigmine): reduce the production of β-APP | production of β-APP (β-APP [7]; coadministered with galantamine): reduce the production of β-APP | production of β-APP (β-APP [7]; coadministered with huperzine A): reduce the production of β-APP | production of β-APP (β-APP [7]; coadministered with rivastigmine): reduce the production of β-APP | efficacy test level (NPI, CGIC, ADAS-cog, MMSE, CANTAB, ADCS-ADL) vs First Level ([8]; 50 mg bid with 5 mg bid (−)-phenserine): maintain a level at least as great as the First Level | efficacy test level (NPI, CGIC, ADAS-cog, MMSE, CANTAB, ADCS-ADL) vs First Level ([8]; 50 mg bid with 6-12 mg per day rivastigmine): maintain a level at least as great as the First Level | activity as an inhibitor of human acetylcholinesterase [9]: far less active

CCN(C)C(=O)Oc1cccc([C@H](C)N(C)C)c1 [rivastigmine, reference compound]
secreted β-APP (β-APP [2]; [16]): elevated secretion of β-APP; also recorded: elevates the levels of secreted β-APP | Aβ peptide levels (Aβ [3]; [16]): No statistically significant change; also recorded: without a statistically significant change

COP(=O)(OC)C(O)C(Cl)(Cl)Cl (centres unmarked) [Metrifonate]
secreted β-APP levels (β-APP [1]): did not alter

CN1CC[C@@]2(C)c3cc(OC(=O)Nc4ccccc4)ccc3N(C)C12 (single isomer, unassigned; (-)) [(−)-phenserine]
extracellular β-APP in the CSF, dose dependence of the decrease (β-APP [10]; adult rats, up to very high doses): reaches a plateau that is not further decreased even at very high doses | CSF levels of β-APP (β-APP [10]; naive rats, 2.5 mg/kg, 2.5 mg/kg): lowered β-APP levels; also recorded: reduce β-APP levels | CSF levels of β-APP (β-APP [10]; rats with cholinergic forebrain (nucleus basalis of Meynert) lesions): lowered β-APP levels | inhibition at 1 mg/kg (AChE [11]; at 5 minutes, read-out: maximum AChE inhibition): 73.5% | inhibition at 1 mg/kg (AChE [11]; at 8 hours, read-out: AChE inhibition): 43% | β-APP levels, intracellular and extracellular (β-APP [2]): significantly lowered; also recorded: reduces β-APP and Aβ levels in a concentration-dependent manner; also recorded: decreased the β-APP levels | IC50 (β-APP [2]; [14]): ~0.67 µM | IC50 (β-APP [2]; intracellular β-APP levels, read-out: IC50 for inhibition of β-APP, intracellular): ~1.1 µM | IC50 (β-APP [2]; [15]): ~1.1 µM | secreted levels of Aβ (Aβ [3]): significantly lowered; also recorded: reduces β-APP and Aβ levels in a concentration-dependent manner; also recorded: substantially reduced from that of the controls especially at 16 hours | duration of fine tremor ([5]; 5 mg/kg i.p.): about 1 hour | observed symptoms ([5]; 5 mg/kg i.p.): a fine tremor was observed | observed symptoms ([5]; 7.5 mg/kg i.p.): Tremor, together with symptoms of peripheral over-stimulation (specifically, lacrimation and salivation) | observed symptoms ([5]; 20 mg/kg i.p.): incapacitated by severe tremor and peripheral side effects | animals killed when moribund ([5]; 20 mg/kg i.p., of 5 treated animals): 2 | reduction of Aβ levels in nerve cells (Aβ [6]; after 8 hours): 14% | reduction of Aβ levels in nerve cells (Aβ [6]; after 16 hours): 31% | IC50 (BChE; Brain): 2.5 ± 1.1 µM | IC50 (BChE; RBC/plasma): 1.56 ± 0.27 µM | levels of β-APP (β-APP [12]): similarly reduced | IC50 (AChE [13]): 0.036 ± 0.003 µM

COc1cc2c(cc1OC)C(=O)C(CC1CCN(Cc3ccccc3)CC1)C2 (centres unmarked) [donepezil, reference compound]
intracellular β-APP level (β-APP [2]): decreased intracellular levels | intracellular β-APP level (β-APP [2]; listed as Donepezil): reduces intracellular β-APP
